# Laboratory results published in US20250089713A1, “METHOD OF CONTROLLING OR REDUCING SENESCENCE IN PLANTS AND SEEDS” (Bedoukian Reseach, Inc., priority 2023, published 2025).
# Several values for one entry are separate records, joined by “and”; a condition that tells them apart may be missing. Identical values can stand only once.
# How the values were obtained:
# [1] = system: seeds of the corn varietal Kandy Korn; experiment: Reduction of retarded seed germination rate senescence, seed soak (germination rate and radicle length); assay type: in vivo
# Experimental: Non-germinated seeds of the corn varietal Kandy Korn are soaked in one of two treatment solutions: T1: untreated, only water and T2: treated, 1.5 mM (0.034% wt) of methyl dihydrojasmonate (MDJ) in water for 24 hours in 50 mL conical vessels. During the soak event, the seeds spend 12 hours in typical lighting conditions and 12 hours in darkness. Following seed treatment, the treatment solutions are drained from their vessels and a selection of seeds are taken from each vessel for planting. Six two-inch pots are planted for each treatment group, with three seeds per pot, for a total of 18 seeds planted per treatment. The unplanted seeds are allowed to remain in their original vessels in lighted conditions. In addition to determining the germination rate, the radicle lengths of the germinated seeds are measured.
# [2] = system: corn (Kandy Korn, extra sweet) plants; experiment: Reduction of plant wilting senescence, foliar spray on corn seedlings; assay type: in vivo; conditions: foliar spray of 1 mM (0.023% wt) in water at day 18, observed at day 25, n = 12, untreated 65%
# Experimental: Seeds of corn (Kandy Korn, extra sweet) are planted in 2-inch pots. Seedlings are grown in 2-inch pots under 16-hour day/8-hour night greenhouse conditions. Plants are placed outdoors and receive 5-6 hours of natural, direct light 4-6 days per week. At day 18, seedlings receive one of two treatments: T1: untreated plants (n=11) and T2: treated, plants with foliar spray of 1 mM (0.023% wt) of methyl dihydrojasmonate (MDJ) in water. Plants are sprayed until the point of drip. (n=12). At day 25, plants are observed and senescence is recorded (percentage of wilting plants).
smiles,measurement,setting,value
"CCCCCC1C(=O)CCC1CC(=O)OC (stereo not shown) [MDJ, methyl dihydrojasmonate]",Germination Rate (percent of seeds that germinated),"[1]; corn seeds soaked 24 hours in 1.5 mM (0.034% wt) in water, n = 10, untreated (only water) 50%",100%
same,Radicle length measurements of unplanted germinated seeds (individual seeds),"[1]; corn seeds soaked 24 hours in 1.5 mM in water, one value per seed, untreated 1-3 mm, listed as Methyl Dihydrojasmonate (MDJ)",5 mm (3×) and 6 mm (2×) and 4 mm (4×) and 3 mm
same,average radicle length compared with untreated (only water),"[1]; corn seeds soaked in 1.5 mM, FIG. 2",significantly longer
same,% of plants with senescing plant wilting,[2],25%
